These results are taken from patent publication US8822517B2, “Arylosulfonamides for the treatment of CNS diseases” (Adamed SP. Z O.O., priority 2010, dated 2014).

In experiment [1] the target is T1, serotonine transporter (SERT) receptor (Homo sapiens, UniProt P31645).
T1 construct: expressed in transfected cells; host or cells: CHO cells
The experiment can be described thus: Binding assay SERT (h), [3H]imipramine, CHO cells. The settings on record: read-out: SERT [%]. The procedure, abridged:
(§1)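 Compounds tested at a single 1×10^−6 M concentration against the listed radioligands; bound label counted by scintillation, with non-specific binding defined by excess unlabelled ligand and subtracted from total.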

The test system of the next experiment is adrenergic α1 receptor. The experiment can be described thus: Binding assay α1 (non-selective), [3H]prazosin, rat cerebral cortex. The settings on record: percent inhibition of control specific binding; compounds tested at 1×10^−6 M. The procedure, abridged: as §1
The target of the next experiment is dopaminergic D3 receptor (Homo sapiens, UniProt P35462). The experiment can be described thus: Binding assay D3 (h), [3H]methyl-spiperone, CHO cells. More on the design: expressed in transfected cells; host or cells: CHO cells. The settings on record: read-out: D3 [%]. A digest of the protocol:
as §1

Experiment [2] concerns the target serotoninergic 5-HT6 receptor (Homo sapiens, UniProt P50406). The experiment can be described thus: Binding assay 5-HT6 (h), [3H]LSD, CHO cells. The settings on record: read-out: 5-HT6. On the set-up: expressed in transfected cells; host or cells: CHO cells. The procedure, abridged:
as §1

Experiment [3] addresses serotoninergic 5-HT7 receptor (Homo sapiens, UniProt P34969). The experiment can be described thus: Binding assay 5-HT7 (h), [3H]LSD, CHO cells. More on the design: expressed in transfected cells; host or cells: CHO cells. Particulars: read-out: 5-HT7. The procedure, abridged:
as §1

The target of the next experiment is dopaminergic D2 receptor (Homo sapiens, UniProt P14416). The experiment can be described thus: Binding assay D2S (h), [3H]methyl-spiperone, HEK-293 cells. On the set-up: expressed in transfected cells; host or cells: HEK-293 cells. Particulars: read-out: D2 [%]. A digest of the protocol: as §1
Experiment [4] concerns the target T2, serotoninergic 5-HT1A receptor (Homo sapiens, UniProt P08908).
T2 sequence (P08908 1-422): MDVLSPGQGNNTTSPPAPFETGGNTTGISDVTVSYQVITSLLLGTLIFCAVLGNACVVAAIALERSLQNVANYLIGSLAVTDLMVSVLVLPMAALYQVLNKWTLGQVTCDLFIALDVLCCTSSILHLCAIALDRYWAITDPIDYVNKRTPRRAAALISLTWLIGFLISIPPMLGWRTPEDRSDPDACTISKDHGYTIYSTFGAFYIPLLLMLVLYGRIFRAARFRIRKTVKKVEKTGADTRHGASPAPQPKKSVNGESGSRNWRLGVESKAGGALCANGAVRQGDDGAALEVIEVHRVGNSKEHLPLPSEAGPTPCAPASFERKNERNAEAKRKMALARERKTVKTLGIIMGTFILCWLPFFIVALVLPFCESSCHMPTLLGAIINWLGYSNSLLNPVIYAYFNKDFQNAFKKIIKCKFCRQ
The experiment can be described thus: Binding assay 5-HT1A (h), [3H]8-OH-DPAT, HEK-293 cells. On the set-up: expressed in transfected cells; host or cells: HEK-293 cells. The settings on record: read-out: 5-HT1A. The procedure, abridged: as §1

The target of experiment [5] is serotoninergic 5-HT2A receptor (Homo sapiens, UniProt P28223). The experiment can be described thus: Binding assay 5-HT2A (h), [3H]ketanserin, HEK-293 cells. More on the design: expressed in transfected cells; host or cells: HEK-293 cells. Particulars: read-out: 5-HT2A. The procedure, abridged:
as §1

dopaminergic D3 receptor, sequence (P35462 whole entry): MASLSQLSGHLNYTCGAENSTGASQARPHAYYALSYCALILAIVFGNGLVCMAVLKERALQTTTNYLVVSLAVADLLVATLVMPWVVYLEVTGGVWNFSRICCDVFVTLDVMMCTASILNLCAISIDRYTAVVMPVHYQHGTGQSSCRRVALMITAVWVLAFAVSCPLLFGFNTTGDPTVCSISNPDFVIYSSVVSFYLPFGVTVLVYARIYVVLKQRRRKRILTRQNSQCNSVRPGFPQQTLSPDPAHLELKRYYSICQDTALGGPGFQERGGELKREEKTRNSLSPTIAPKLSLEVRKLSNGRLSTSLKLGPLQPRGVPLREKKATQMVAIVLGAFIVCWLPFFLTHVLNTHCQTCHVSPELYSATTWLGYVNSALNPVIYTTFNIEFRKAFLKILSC
T1 sequence (P31645 whole entry): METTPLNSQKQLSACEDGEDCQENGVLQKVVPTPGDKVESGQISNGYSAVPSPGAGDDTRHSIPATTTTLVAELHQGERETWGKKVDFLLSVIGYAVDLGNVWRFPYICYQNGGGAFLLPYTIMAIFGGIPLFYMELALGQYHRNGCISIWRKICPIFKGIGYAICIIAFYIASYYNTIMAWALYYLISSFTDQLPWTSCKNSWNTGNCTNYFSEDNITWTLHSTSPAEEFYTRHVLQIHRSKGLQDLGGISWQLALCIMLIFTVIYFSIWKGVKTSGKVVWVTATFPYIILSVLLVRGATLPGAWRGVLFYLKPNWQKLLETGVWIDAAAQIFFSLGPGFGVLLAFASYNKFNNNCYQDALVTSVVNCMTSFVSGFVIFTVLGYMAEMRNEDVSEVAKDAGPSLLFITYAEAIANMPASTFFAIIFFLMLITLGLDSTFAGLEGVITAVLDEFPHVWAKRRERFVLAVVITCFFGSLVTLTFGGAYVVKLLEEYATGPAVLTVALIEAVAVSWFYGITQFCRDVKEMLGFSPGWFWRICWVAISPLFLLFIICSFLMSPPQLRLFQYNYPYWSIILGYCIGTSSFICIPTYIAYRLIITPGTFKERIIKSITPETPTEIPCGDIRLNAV
serotoninergic 5-HT6 receptor, sequence (P50406 whole entry): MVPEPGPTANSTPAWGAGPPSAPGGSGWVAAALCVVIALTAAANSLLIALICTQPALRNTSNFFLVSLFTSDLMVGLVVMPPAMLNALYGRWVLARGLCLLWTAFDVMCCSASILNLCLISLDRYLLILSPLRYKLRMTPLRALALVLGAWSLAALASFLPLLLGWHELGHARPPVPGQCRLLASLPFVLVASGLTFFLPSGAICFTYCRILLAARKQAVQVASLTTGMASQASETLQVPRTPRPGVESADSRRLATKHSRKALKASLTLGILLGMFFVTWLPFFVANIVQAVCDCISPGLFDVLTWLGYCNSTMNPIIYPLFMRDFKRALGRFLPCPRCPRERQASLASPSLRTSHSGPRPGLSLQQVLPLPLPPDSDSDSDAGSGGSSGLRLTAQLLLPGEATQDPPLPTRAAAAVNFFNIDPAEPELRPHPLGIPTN
serotoninergic 5-HT2A receptor, sequence (P28223 whole entry): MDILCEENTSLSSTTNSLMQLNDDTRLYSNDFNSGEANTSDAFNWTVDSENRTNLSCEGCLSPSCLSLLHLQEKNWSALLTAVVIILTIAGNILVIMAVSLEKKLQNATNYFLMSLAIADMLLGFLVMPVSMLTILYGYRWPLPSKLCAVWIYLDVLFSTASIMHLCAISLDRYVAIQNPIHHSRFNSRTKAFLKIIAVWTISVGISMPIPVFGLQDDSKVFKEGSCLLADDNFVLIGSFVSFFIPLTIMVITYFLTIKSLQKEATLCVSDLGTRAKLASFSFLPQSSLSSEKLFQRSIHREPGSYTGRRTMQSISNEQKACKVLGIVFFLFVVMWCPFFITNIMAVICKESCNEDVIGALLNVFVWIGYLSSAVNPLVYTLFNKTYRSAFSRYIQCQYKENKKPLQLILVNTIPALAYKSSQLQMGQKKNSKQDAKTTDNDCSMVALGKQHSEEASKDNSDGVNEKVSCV
serotoninergic 5-HT7 receptor, sequence (P34969 whole entry): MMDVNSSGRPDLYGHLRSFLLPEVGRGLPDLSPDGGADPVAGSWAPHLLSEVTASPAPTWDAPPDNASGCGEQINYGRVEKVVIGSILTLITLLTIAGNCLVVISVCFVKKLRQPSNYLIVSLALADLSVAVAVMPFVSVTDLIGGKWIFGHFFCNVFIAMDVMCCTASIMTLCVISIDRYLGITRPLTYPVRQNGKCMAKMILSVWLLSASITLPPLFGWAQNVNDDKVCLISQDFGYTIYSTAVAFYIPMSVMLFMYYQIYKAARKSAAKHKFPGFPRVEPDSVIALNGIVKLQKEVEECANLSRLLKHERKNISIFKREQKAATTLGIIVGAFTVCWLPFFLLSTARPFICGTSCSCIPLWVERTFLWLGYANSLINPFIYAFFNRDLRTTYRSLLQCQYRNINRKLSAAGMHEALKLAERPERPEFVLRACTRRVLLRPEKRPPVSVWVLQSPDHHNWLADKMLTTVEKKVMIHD
dopaminergic D2 receptor, sequence (P14416 1-414 isoform P14416-2): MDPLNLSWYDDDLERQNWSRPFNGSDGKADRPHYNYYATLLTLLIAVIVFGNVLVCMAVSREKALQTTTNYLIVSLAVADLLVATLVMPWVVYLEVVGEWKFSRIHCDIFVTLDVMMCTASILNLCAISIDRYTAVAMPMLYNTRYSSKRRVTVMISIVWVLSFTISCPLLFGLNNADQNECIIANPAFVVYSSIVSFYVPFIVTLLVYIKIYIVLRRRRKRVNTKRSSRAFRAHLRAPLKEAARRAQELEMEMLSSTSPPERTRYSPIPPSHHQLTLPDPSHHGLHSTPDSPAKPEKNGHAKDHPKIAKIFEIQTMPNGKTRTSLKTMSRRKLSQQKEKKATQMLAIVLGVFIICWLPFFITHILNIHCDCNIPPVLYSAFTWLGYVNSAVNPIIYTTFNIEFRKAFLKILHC

Turning to `O=S(=O)(NCCCN1CCC(c2noc3cc(F)ccc23)CC1)c1ccc2c(c1)OCCO2` [Compound 355, N-[3-[4-(6-Fluoro-1,2-benzoxazol-3-yl)piperidin-1-yl]propyl]-2,3-dihydro-1,4-benzodioxine-6-sulphonamide], the inhibition at 1 µM in experiment [1] came out at 45%; at dopaminergic D3 receptor it was 97%; in experiment [2], 75%; in experiment [3] it was 84%; at dopaminergic D2 receptor it was 99%; in experiment [4] it was 60%. Also, the inhibition at 1 µM in experiment [5] worked out at 103%. In the experiment on adrenergic α1 receptor, the “α1 [%]” value was found to be 105%.

For `O=C1COc2c(cccc2N2CCN(CCCCNS(=O)(=O)c3ccc(Cl)s3)CC2)N1` [Compound 431, 5-Chloro-N-[4-[4-(3-oxo-4H-1,4-benzoxazin-8-yl)piperazin-1-yl]butyl]thiophene-2-sulphonamide], the inhibition at 1 µM in experiment [1] is 12%; on dopaminergic D3 receptor it was 103%; in experiment [2], 35%; in experiment [3], 67%; on dopaminergic D2 receptor, 68%; in experiment [4], 101%. Moreover, in experiment [5], the inhibition at 1 µM was 31%. Also, in the experiment on adrenergic α1 receptor, the “α1 [%]” value was 88%.

Regarding `O=S(=O)(NCCCN1CCN(c2nsc3ccccc23)CC1)c1ccc2cc(Cl)ccc2c1` [Compound 62, N-[3-[4-(1,2-Benzothiazol-3-yl)piperazin-1-yl]propyl]-6-chloro-naphthalene-2-sulphonamide], the inhibition at 1 µM is 15% in experiment [1]; 63% at dopaminergic D3 receptor; 69% in experiment [2]; 78% in experiment [3]; 92% at dopaminergic D2 receptor; 46% in experiment [4]. Further, in experiment [5], the inhibition at 1 µM is 101%. Further, in the experiment on adrenergic α1 receptor, the “α1 [%]” value amounted to 61%.

Turning to `O=S(=O)(NCCCCN1CCN(c2nsc3ccccc23)CC1)c1ccc(Br)cc1` [Compound 229, N-[4-[4-(1,2-Benzothiazol-3-yl)piperazin-1-yl]butyl]-4-bromobenzenesulphonamide], the inhibition at 1 µM was 9% in experiment [1]; 95% on dopaminergic D3 receptor; 75% in experiment [2]; 89% in experiment [3]; 101% at dopaminergic D2 receptor; 92% in experiment [4]. For the same compound, in experiment [5], the inhibition at 1 µM is 80%. Besides, the “α1 [%]” value in the experiment with adrenergic α1 receptor came out at 96%.

In the case of `O=S(=O)(NCCCCN1CCC(c2noc3cc(F)ccc23)CC1)c1cccc2scnc12` [Compound 318, N-[4-[4-(6-Fluoro-1,2-benzoxazol-3-yl)piperidin-1-yl]butyl]-1,3-benzothiazole-4-sulphonamide], the inhibition at 1 µM worked out at 45% in experiment [1]; 95% at dopaminergic D3 receptor; 76% in experiment [2]; 92% in experiment [3]; 67% at dopaminergic D2 receptor; 96% in experiment [4]. Further, the inhibition at 1 µM in experiment [5] amounted to 89%. In addition, the “α1 [%]” value with adrenergic α1 receptor is recorded as 98%.

In the case of `O=C1COc2c(cccc2N2CCN(CCCCNS(=O)(=O)c3ccc(F)cc3)CC2)N1` [Compound 428, 4-Fluoro-N-[4-[4-(3-oxo-4H-1,4-benzoxazin-8-yl)piperazin-1-yl]butyl]benzenesulphonamide], the inhibition at 1 µM in experiment [1] is 23%; on dopaminergic D3 receptor it was 104%; in experiment [2], 33%; in experiment [3], 78%; on dopaminergic D2 receptor it was 78%; in experiment [4] it was 90%. Also, the inhibition at 1 µM in experiment [5] amounted to 30%. In addition, the “α1 [%]” value in the experiment on adrenergic α1 receptor stood at 72%.

As to `Cc1c(S(=O)(=O)NCCCCN2CCN(c3cccc4[nH]ccc34)CC2)sc2ccc(F)cc12` [Compound 364, 5-Fluoro-N-[4-[4-(1H-indol-4-yl)piperazin-1-yl]butyl]-3-methylbenzothiophene-2-sulphonamide], the inhibition at 1 µM in experiment [1] worked out at 35%; at dopaminergic D3 receptor it was 100%; in experiment [2], 80%; in experiment [3], 91%; at dopaminergic D2 receptor, 100%; in experiment [4] it was 92%. The inhibition at 1 µM in experiment [5] came to 89%. Besides, in the experiment on adrenergic α1 receptor, the “α1 [%]” value amounted to 87%.

On to `O=S(=O)(NCCCN1CCC(c2noc3cc(F)ccc23)CC1)c1ccc(Cl)c(Cl)c1` [Compound 329, 3,4-Dichloro-N-[3-[4-(6-fluoro-1,2-benzoxazol-3-yl)piperidin-1-yl]propyl]benzenesulphonamide], for which the inhibition at 1 µM in experiment [1] is -2%; on dopaminergic D3 receptor it was 99%; in experiment [2], 97%; in experiment [3], 95%; on dopaminergic D2 receptor, 109%; in experiment [4] it was 69%. In experiment [5], the inhibition at 1 µM worked out at 91%. Moreover, the “α1 [%]” value in the experiment with adrenergic α1 receptor amounted to 102%.

For the compound `O=S(=O)(NCCCN1CCC(c2noc3cc(F)ccc23)CC1)c1ccsc1` [Compound 340, N-[3-[4-(6-Fluoro-1,2-benzoxazol-3-yl)piperidin-1-yl]propyl]thiophene-3-sulphonamide], the inhibition at 1 µM was found to be 9% in experiment [1]; 101% on dopaminergic D3 receptor; 72% in experiment [2]; 90% in experiment [3]; 101% on dopaminergic D2 receptor; 45% in experiment [4]. Moreover, the inhibition at 1 µM in experiment [5] came to 104%. Also, the “α1 [%]” value with adrenergic α1 receptor stood at 110%.

As to `O=S(=O)(NCCCN1CCC(c2noc3cc(F)ccc23)CC1)c1cccc(C(F)(F)F)c1` [Compound 335, N-[3-[4-(6-Fluoro-1,2-benzoxazol-3-yl)piperidin-1-yl]propyl]-3-(trifluoromethyl)-benzenesulphonamide], the inhibition at 1 µM was -25% in experiment [1]; 93% at dopaminergic D3 receptor; 93% in experiment [2]; 88% in experiment [3]; 105% on dopaminergic D2 receptor; 54% in experiment [4]. Further, the inhibition at 1 µM in experiment [5] amounted to 97%. The “α1 [%]” value in the experiment with adrenergic α1 receptor was determined as 101%.

`N#Cc1ccc(S(=O)(=O)NCCCN2CCC(c3noc4cc(F)ccc34)CC2)cc1` [Compound 337, 4-Cyano-N-[3-[4-(6-fluoro-1,2-benzoxazol-3-yl)piperidin-1-yl]propyl]benzenesulphonamide]: the inhibition at 1 µM in experiment [1] is 35%; on dopaminergic D3 receptor, 79%; in experiment [2] it was 76%; in experiment [3], 87%; on dopaminergic D2 receptor, 59%; in experiment [4], 41%. Further, the inhibition at 1 µM in experiment [5] stood at 102%. In the experiment with adrenergic α1 receptor, the “α1 [%]” value worked out at 93%.

As for `N#Cc1cccc(S(=O)(=O)NCCCCN2CCN(c3nsc4ccccc34)CC2)c1` [Compound 73, N-[4-[4-(1,2-Benzothiazol-3-yl)piperazin-1-yl]butyl]-3-cyanobenzenesulphonamide], the inhibition at 1 µM in experiment [1] stood at 37%; at dopaminergic D3 receptor, 94%; in experiment [2] it was 82%; in experiment [3], 91%; at dopaminergic D2 receptor, 102%; in experiment [4], 92%. The inhibition at 1 µM in experiment [5] was 81%. Besides, in the experiment on adrenergic α1 receptor, the “α1 [%]” value amounted to 98%.
